Source: patent publication US7670629B2, “Method of treating bacterial hoof infections of sheep and cattle” (priority 2005, dated 2010)
Where two headings read alike, the source gives them in different places. Marks after values point to notes of the source that are not given here.

Assays:
[1] = system: Prevotella melaninogenica ATCC No. 25845; conditions: for zone of inhibition of Prevotella melaninogenica: disc on BA plate, anaerobic 48 hours, mean of three assays; for zone of inhibition of P. melaninogenica, comparison between minerals: at each of the concentrations (2.5-15%); for zone of inhibition of P. melaninogenica, comparison between minerals / overall antibacterial effect on P. melaninogenica: in words; for overall antibacterial effect on P. melaninogenica: summary
Experimental: (§1) The bacterial strains used for this study were obtained from the American Type Culture Collection (ATCC).
(§2) Dehydrated bacteria were resuspended in 5 mL of Brain Heart Infusion (BHI) broth and incubated anaerobically for 48 hours at 37° C. A total of 20 uL of each resuspended bacterial solution was plated on two 5% Trypticase Sheep Blood Agar (BA) plates and incubated anaerobically for 48 hours at 37° C. to ensure that a pure culture was maintained throughout the resuspension process. Six (6) vials of each bacterium were frozen down from the resuspended broth in a 20% glycerol solution (500 uL bacteria: 500 uL 40% glycerol).
(§3) One vial from the frozen stock of each bacterial strain was grown in 100 mL of Difco Anaerobe Broth MIC. P. melaninogenica was grown anaerobically for 24 hours at 37° C. and F. necrophorum was grown anaerobically for 48 hours at 37° C. After incubation, one hundred (100) 1 mL-vials of each bacterium were frozen down in a 10% glycerol solution.
(§4) Colony forming units/mL (CFU/mL) for each bacterium was determined by thawing 3 vials of each bacteria and making serial 1:10 dilutions out to 10e^−7. Separate serial dilutions were made for each of the three vials. A total of 100 uL of dilutions 10e^−3, 10e^−4, 10e^−5, 10e^−6, and 10e^−7 were plated in duplicate for each vial on BA plates and incubated under the appropriate culture conditions for each. The number of colonies growing on each dilution plate was counted and the CFU/mL for each dilution was determined. The average CFU/mL for each bacterium was calculated and used for all further assays.
(§5) The ZnCl arrived as a 60% solution and was diluted with distilled water to achieve concentrations of 2.5%, 5%, 10%, and 15% by weight. […] All mineral concentrations were filter-sterilized to ensure sterility.
(§6) To determine whether different concentrations of mineral salt solutions can inhibit the growth of an established culture, a separate blank paper disc was infused with each concentration of mineral salt solution and placed onto BA plates that had been swabbed with established cultures of each bacterium. Plates were incubated anaerobically for 48 hours and the zone (in mm) around each disc with no bacterial growth was measured with a caliper. The assay was repeated three times, and the mean zone of inhibition for each mineral concentration was calculated.
(§7) Data were analyzed using the Mixed Model procedure of SAS (PROC MIXED; SAS Stat Inc., Cary, N.C.) to test the effect of different concentrations for each mineral on P. melaninogenica and F. necrophorum. Least square means were calculated and separated using the PDIFF option of SAS. Contrast statements of SAS were used to determine linear and quadratic effects. The plate was used as the experimental unit. An alpha level of 0.05 was used to assess the significance in this experiment.

[2] = system: Fusobacterium necrophorum ATCC No. 25286; conditions: for zone of inhibition of Fusobacterium necrophorum: disc on BA plate, anaerobic 48 hours, mean of three assays; for zone of inhibition of F. necrophorum, comparison between minerals: at each of the concentrations (2.5-15%), P<0.01; for zone of inhibition of F. necrophorum, comparison between minerals / overall antibacterial effect on F. necrophorum: in words; for overall antibacterial effect on F. necrophorum: summary
Experimental: as §1, §2, §3, §4, §5, §6, §7

[3] = 2.5% solution in distilled water
[4] = 10% solution in distilled water
[5] = 15% solution in distilled water

| SMILES | pH of mineral salt solution [3] | pH of mineral salt solution (5% solution in distilled water) | pH of mineral salt solution [4] | pH of mineral salt solution [5] | zone of inhibition of Prevotella melaninogenica ([1]; 2.5% solution) | zone of inhibition of Prevotella melaninogenica ([1]; 5% solution) | zone of inhibition of Prevotella melaninogenica ([1]; 10% solution) | zone of inhibition of Prevotella melaninogenica ([1]; 15% solution) | zone of inhibition of P. melaninogenica, comparison between minerals [1] | overall antibacterial effect on P. melaninogenica [1] | zone of inhibition of Fusobacterium necrophorum ([2]; 2.5% solution) | zone of inhibition of Fusobacterium necrophorum ([2]; 5% solution) | zone of inhibition of Fusobacterium necrophorum ([2]; 10% solution) | zone of inhibition of Fusobacterium necrophorum ([2]; 15% solution) | zone of inhibition of F. necrophorum, comparison between minerals [2] | overall antibacterial effect on F. necrophorum [2] | pH relative to the other mineral salts (at all of the concentrations, in words) |
| --- | --- | --- | --- | --- | --- | --- | --- | --- | --- | --- | --- | --- | --- | --- | --- | --- | --- |
| O=S(=O)([O-])[O-].[Cu+2] [CuSO4, copper sulfate] | 4.34 | 4.13 | 3.94 | 3.81 | 31.0^a mm | 31.7^a mm | 38.2^a mm | 40.7^a mm | not significantly different | greatest antibacterial effect | 36.3^c mm | 40.7^c mm | 46.7^c mm | 52.2^c mm | greatest | greatest antibacterial effect | – |
| [Cl-].[Cl-].[Zn+2] [ZnCl2, zinc chloride] | 6.02 | 5.78 | 5.43 | 5.21 | 38.9^b mm | 42.5^b mm | 46.6^b mm | 52.0^b mm | significantly greater zone of inhibition | greatest antibacterial effect | 27.6^b mm | 33.9^b mm | 41.3^b mm | 44.2^b mm | intermediate | greatest antibacterial effect | less acidic |
| O=S(=O)([O-])[O-].[Zn+2] [ZnSO4, zinc sulfate] | 5.06 | 4.75 | 4.34 | 4.16 | 29.3^a mm | 33.5^a mm | 38.6^a mm | 42.9^a mm | – | only slightly less antibacterial activity | 25.0^a mm | 29.5^a mm | 35.8^a mm | 40.4^a mm | smallest | only slightly less antibacterial activity | – |
